Measurements from patent US8436151B2, “Indoleamine 2,3-dioxygenase-2 antibodies” (Lankenau Institute for Medical Research, priority 2006, dated 2013).
“Also recorded” adds a separate entry of the source.

Experiments:
IDO2 = target: T1, IDO2 (Mus musculus, UniProt Q8R0V5); assay: Cell-based kynurenine detection assay in IDO2 expressing T-REx cells; parameters: species or system murine; conditions: doxycycline-induced T-REx cells, increasing concentrations, 5 days (FIG. 8B)
T1 construct: The complete coding regions of murine IDO1 and IDO2 were cloned in-frame with the V5/His TAG coding region in pcDNA4/TO; expressed in transfected cells; host or cells: T-REx-293 cells (Invitrogen), pcDNA4/TO-muIDO2, doxycycline-induced
T1 sequence (Q8R0V5 1-405): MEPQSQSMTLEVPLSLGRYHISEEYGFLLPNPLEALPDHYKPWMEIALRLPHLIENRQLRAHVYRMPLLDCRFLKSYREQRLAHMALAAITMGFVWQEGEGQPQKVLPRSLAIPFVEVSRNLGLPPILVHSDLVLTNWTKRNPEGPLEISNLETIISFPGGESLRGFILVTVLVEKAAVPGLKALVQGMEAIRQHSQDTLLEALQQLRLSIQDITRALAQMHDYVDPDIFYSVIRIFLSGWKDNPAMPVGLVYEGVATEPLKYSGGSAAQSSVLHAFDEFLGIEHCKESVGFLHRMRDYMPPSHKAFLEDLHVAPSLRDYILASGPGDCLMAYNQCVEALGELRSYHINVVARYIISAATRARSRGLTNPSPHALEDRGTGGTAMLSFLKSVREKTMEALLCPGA
Experimental: This assay measures the product of the indoleamine 2,3-dioxygenase conversion of L-tryptophan to N-formyl-kynurenine by acid hydrolysis to kynurenine, which is measured indirectly though the absorbance (480 nm) of imine produced by the reaction of the aromatic amino group of klynurenine with p-dimethylaminobenzaldehyde (Ehrlich's reagent) as described by Takikawa et al. (J. Biol. Chem. (1988) 263:2041-2048). Typically, 200 μL of media from the test sample is combined with 12.5 μL of 30% TCA and incubated at 50° C. for 30 minutes. Evaporation was avoided by sealing the rim of the plate or tubes with parafilm. Samples are clarified by centrifugation for 10 minutes at 3-10K rpm. 100 μL of the supernatant was removed to a fresh well in an assay plate and mixed with 100 μL of fresh Ehrlich's reagent (2% p-dimethylaminobenzaldehyde w/v with glacial acetic acid). The plates were incubated for 10-30 minutes at room temperature and the absorbance was read at 490 nm. Typically, assays were performed in triplicate and the data analyzed using Excel software program (Microsoft). […] Typically, control values were averaged and subtracted from the sample values. The complete coding regions of murine IDO1 and IDO2 were cloned in-frame with the […] TAG coding region in pcDNA4/TO (Invitrogen) which contains a regulatory region that is repressed by the tetracyclin regulated repressor (TetR). The complete coding regions of IDO1 and IDO2 were generated using gene specific primers [IDO2 5'[…] ID NO: 16) and IDO1 5'[…] ID NO: 17)] and 3' primers that were gene specific and removed the termination codon [IDO[…] ID NO: 18) and IDO1 minus stop [NT] ID NO: 19)]. The IDO1 and 2 coding regions where then cloned in-frame with the […] carboxyl terminal Tag in the pcDNA4 TO vector (Invitrogen). IDO2 expressing 293 cells metabolize tryptophan and can be inhibited by 1-methyl-[…]). […] The cells were maintained in growth media plus supplements for 5 days, after which the media was harvested and subjected to analysis for the presence of kynurenine.

[1] = test system: purified recIDO2 proteins (rmuIDO2 or rhuIDO2); assay: Enzyme assay of purified recombinant IDO2 (kynurenine formed from L-tryptophan); type: biochemical, murine and human; conditions: varying amounts 0-100 μM (FIG. 25)
Experimental: IDO2 activity was measured as the amount of kynurenine formed from L-tryptophan. The standard assay conditions consisted of a mixture containing 50 mM Pipes pH 6.5, between 50 and 600 nM of rmuIDO2 or rhuIDO2 (where 100 nM of rIDO2 is approximately 5.5 μg protein per mL reaction), 200 U catalase (0.2 mg/mL, sp act. ˜1000 U/mg), 200 μM L-tryptophan, 10 μM methylene blue and 20 mM ascorbic acid. The mixture was incubated at various times ranging from 15 minutes to 4 hours at 37° C. before the reaction was stopped by adding trichloroacetic acid (TCA) to 3% final. The samples were then heated to 50-60° C. for 30 minutes to convert N-formyl-kynureneine to kynurenine, clarified by centrifugation, and supernatants (100 μL) were removed to a new dish, mixed with 100 μL Ehrlich's reagent (2% p-dimethylaminobenzaldehyde w/v in glacial acetic acid), and incubated 10-30 minutes at room temperature. Absorbance at 490 nm was determined on a plate reader and the data collected and analyzed using Excel software (Microsoft). Typically, samples were analyzed in triplicate and control values were typically averaged and subtracted from sample values. Enzyme activity was estimated based on the conversion of tryptophan to kynurenine using linear regression analysis based on an absorbance standard curve derived from assay measurements on known amounts of kynurenine.

IDO2 activation of LIP = assay: Western blot of LIP (NFIL-6) expression in IDO2 expressing T-REx cells; type: cell-based; conditions: for inhibition of IDO2 activation of LIP: Western blot (FIG. 9B)
Experimental: T-REx™ cells (control) and T-REx™ cells expressing IDO1 were either uninduced or induced with doxycycline in the presence or absence of added tryptophan (100 μM). […] T-REx™ cells (control) and T-REx™ cells expressing IDO2 were either uninduced or induced with doxycycline in the presence or absence of added tryptophan. Cells were also optionally treated with the D, L and mixed DL racemic isomers of 1-methyl-tryptophan, (1M-D-T, 1M-L-T and 1M-LD-T, respectively). […] T-REx™ cells expressing IDO2 were either uninduced or induced with doxycycline in the presence or absence of added tryptophan.
Cell lysates were prepared as follows: Cells were removed from the dish by scrapping or pipetting in PBS and collected by centrifugation (2000 rpm/5 minutes). The supernatant was discarded and the cell pellet was lysed in RIPA buffer [50 mM Tris-HCl pH 7.4/150 mM NaCl/1% Triton x-100/1% Sodium deoxycholate/0.1% SDS] plus a protease inhibitor cocktail (Calbiochem Cat #539134). Typically 5×10^5 cells were resuspended in 200 μL of RIPA buffer. Cells lysates were vortexed and incubated on ice or frozen at −20° C. until use. Prior to use lysates were clarified by centrifugation (10,000 rpm/15 minutes) and heat denatured at 95° C. in SDS/sample buffer (100 mM Tris/25% glycerol/2% SDS/0.01% bromophenol blue/25 mM DTT). Proteins were separated by PAGE using NuPAGE® Gels (Invitrogen) and transferred at 100 Volts on to Immobilon-NC Nitrocellulose membranes (Millipore, Billerica, Mass., Cat #HAHY00010) in transfer buffer (25 mM Tris pH 8.3/192 mM glycine/20% methanol). […] For secondary antibody applications, the secondary antibody containing HRP was added in blocking buffer at the appropriate dilution, incubated by shaking at room temperature for 1 hour, and washed 5-6 times in PBS/0.1% Tween. The western membranes were developed by Chemiluminescence using SuperSignal® West Pico substrate (Pierce, Rockford, Ill., Cat #34078), exposed to autography film for an appropriate period of time (3 seconds to 18 hours), and developed.

[2] = test system: allogeneic mouse concepti; conditions: Mellor et al. 2001; Munn et al. 1998; cited from earlier work
tumor = conditions: background statement; listed as L-1MT; cited from earlier work
IDO1 = target: T2, IDO1 (Mus musculus, UniProt P28776); type: cell-based, murine
T2 construct: The complete coding regions of murine IDO1 and IDO2 were cloned in-frame with the V5/His TAG coding region in pcDNA4/TO; expressed in transfected cells; host or cells: T-REx-293 cells (Invitrogen), pcDNA4/TO-muIDO1, doxycycline-induced
T2 sequence (P28776 whole entry): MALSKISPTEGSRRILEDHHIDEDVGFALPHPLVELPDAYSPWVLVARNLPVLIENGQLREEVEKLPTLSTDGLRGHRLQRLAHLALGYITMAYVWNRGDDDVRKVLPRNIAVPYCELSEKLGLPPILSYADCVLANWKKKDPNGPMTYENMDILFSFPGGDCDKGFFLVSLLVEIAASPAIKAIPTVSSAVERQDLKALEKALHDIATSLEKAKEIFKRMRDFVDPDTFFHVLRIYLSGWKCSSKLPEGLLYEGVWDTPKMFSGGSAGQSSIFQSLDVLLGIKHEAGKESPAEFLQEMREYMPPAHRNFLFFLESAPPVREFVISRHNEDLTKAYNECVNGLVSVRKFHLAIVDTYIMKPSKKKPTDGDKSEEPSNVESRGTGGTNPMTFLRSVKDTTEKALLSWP
Experimental: This assay measures the product of the indoleamine 2,3-dioxygenase conversion of L-tryptophan to N-formyl-kynurenine by acid hydrolysis to kynurenine, which is measured indirectly though the absorbance (480 nm) of imine produced by the reaction of the aromatic amino group of klynurenine with p-dimethylaminobenzaldehyde (Ehrlich's reagent) as described by Takikawa et al. (J. Biol. Chem. (1988) 263:2041-2048). Typically, 200 μL of media from the test sample is combined with 12.5 μL of 30% TCA and incubated at 50° C. for 30 minutes. Evaporation was avoided by sealing the rim of the plate or tubes with parafilm. Samples are clarified by centrifugation for 10 minutes at 3-10K rpm. 100 μL of the supernatant was removed to a fresh well in an assay plate and mixed with 100 μL of fresh Ehrlich's reagent (2% p-dimethylaminobenzaldehyde w/v with glacial acetic acid). The plates were incubated for 10-30 minutes at room temperature and the absorbance was read at 490 nm. Typically, assays were performed in triplicate and the data analyzed using Excel software program (Microsoft). Background/control samples were typically derived from media from uninduced cells or cells that lack IDO1/2 expression vectors. Typically, control values were averaged and subtracted from the sample values. […]

For `Cn1cc(C[C@@H](N)C(=O)O)c2ccccc21` [1M-D-T, 1-Methyl-D-Tryptophan], the “kynurenine production in IDO2 expressing cells” value (IDO2) was “decrease in kynurenine production in the IDO2 expressing cells was observed only with 1M-D-T in a dose dependent manner”, the “inhibition of purified recIDO2 proteins” value [1] was “inhibited” and the “inhibition of IDO2 activation of LIP” value (IDO2 activation of LIP) was “inhibited”. For the same molecule, the “activation of GCN2 kinase and subsequent altered LIP expression” value (IDO2 activation of LIP; summary statement) was “blocks the activation of GCN2 kinase and subsequent altered LIP expression”.

For `Cn1cc(CC(N)C(=O)O)c2ccccc21` (racemic) [1M-LD-T, 1-Methyl-DL-Tryptophan], the “rejection of allogeneic mouse concepti” value [2] is given as “elicit MHC-restricted and T cell-mediated rejection of allogeneic mouse concepti” and the “kynurenine production in IDO2 expressing cells” value (IDO2) is given as “no changes in kynurenine levels”.

For `Cn1cc(C[C@H](N)C(=O)O)c2ccccc21` [1M-L-T, 1-Methyl-L-Tryptophan], the “kynurenine production in IDO2 expressing cells” value (IDO2) is given as “no changes in kynurenine levels”, the antitumor activity (tumor) is given as “exhibits a characteristic pattern of antitumor activities; also recorded: effective at inhibiting IDO1 activity and tumor progression” and the “inhibition of IDO2 activation of LIP” value (IDO2 activation of LIP) is given as “to a lesser extent”.

In the case of `CN1C(=O)C(Cc2c[nH]c3ccccc23)NC1=S` (centres unmarked) [MTH, 5-(indol-3-methyl)-3-methyl-2-thio-Hydantoin], the “toxicity of inhibitor to the cells” value (IDO1) is reported as “not toxic to the cells” and the “kynurenine production in IDO1 expressing cells” value (IDO1; doxycycline-induced T-REx cells, increasing concentrations, 5 days (FIG. 8A)) is reported as “decrease in kynurenine production in the IDO1 expressing cells was observed in a dose dependent manner”.
